Experimental findings from BindingDB's records for doi:10.1021/jm980063g (Research Triangle Institute, 1998) are described below.

The experiment can be described thus: The compound was tested for antagonist activity by selective inhibition of [35S]GTP-gamma-S, binding in Guinea pig caudate stimulated by […] (Opioid receptor delta 1). Background: Binding of GTPγS marks nucleotide exchange on a G protein.

A word on the Ki: it is the dissociation constant of the complex between target and ligand, obtained from inhibition or displacement. A high value points to weaker binding. Molecule `Cc1ccccc1/C=C/CN1CC[C@@](C)(c2cccc(O)c2)[C@@H](C)C1` [RTI-5989-25] yielded a Ki of 0.355 nM.

Take `C[C@H]1CN(C/C=C/c2ccccc2)CC[C@@]1(C)c1cccc(O)c1` [3-[(3R,4R)-3,4-Dimethyl-1-((E)-3-phenyl-allyl)-piperidin-4-yl]-phenol]: the inhibition constant Ki is 1.5 nM.
